Like-named read-outs stand apart in the source and are kept apart here.
Legend:
cancer cells = experiment: Survival rate of cancer cells after test compound is added (flow cytometry, Annexin V-FITC/PI, clinical specimen); assay type: cell-based, patient; conditions: Homo sapiens, 18 h, read-out: Survival rate (%) All cells (Stem cells and ordinary cells)
In short: (§1)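 Survival was determined in clinical specimens after an 18 h compound treatment, using Annexin V-FITC/PI apoptosis staining and flow cytometry.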

normal cells = experiment: Survival rate of normal cells after test compound is added (flow cytometry, Annexin V-FITC/PI); assay type: cell-based; conditions: 18 h
In short: as §1

cancer stem cells = experiment: Survival rate of cancer stem cells after test compound is added (flow cytometry, Annexin V-FITC/PI, clinical specimen); assay type: cell-based, patient; conditions: Homo sapiens, 18 h
In short: as §1

[1] = tested on: TNF-α secreted by synoviocyte; experiment: Content of TNF-α in culture supernatant of synoviocyte of RA model rats given test compound; assay type: in vivo; conditions: rat RA model, dose 30 mg/kg.2d; normal control 0.38 ± 0.027, NaCl 0.74 ± 0.098
In short: (§2)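 Content of secreted TNF-α, PGE2 and IL-1β measured in supernatants of synoviocytes cultured from RA model rats. Animals dosed at 30 mg/kg.2d; normal control and NaCl groups included.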

[2] = tested on: IL-1β secreted by synoviocyte; experiment: Content of IL-1β in culture supernatant of synoviocyte of RA model rats given test compound; assay type: in vivo; conditions: rat RA model, dose 30 mg/kg.2d; normal control 0.16 ± 0.034, NaCl 0.49 ± 0.136
In short: as §2

[3] = Head and neck squamous cell carcinomas
[4] = read-out: Survival rate (%) All cells (Stem cells and ordinary cells)
[5] = read-out: Survival rate (%) Stem cells

With `C=C1C(=O)O[C@@H]2[C@@H]3[C@@H](CC[C@@]3(C)O)C(=C)CC[C@@H]12` [Compound 48] as the compound, how does the viability at 10 µM (cancer cells; AML) read?
The viability at 10 µM was 59%.

What about the viability at 20 µM (cancer cells; AML) of the same compound?
The viability at 20 µM was 48%.

And the viability at 10 µM (cancer cells; Brain glioma)?
Its viability at 10 µM is 66%.

What about the viability at 20 µM (cancer cells; Brain glioma) of the same compound?
The viability at 20 µM was 54%.

And the viability at 10 µM (cancer cells; Brain tumor)?
The viability at 10 µM was 78%.

What about the viability at 20 µM (cancer cells; Brain tumor) of the same compound?
Its viability at 20 µM is 69%.

And the viability at 10 µM (cancer cells; Breast cancer)?
Its viability at 10 µM is 76%.

And the viability at 20 µM (cancer cells; Breast cancer)?
Its viability at 20 µM is 58%.

What about the viability at 10 µM (cancer cells; CLL) of the same compound?
The viability at 10 µM was 67%.

What about the viability at 20 µM (cancer cells; CLL) of the same compound?
Its viability at 20 µM is 48%.

And the viability at 10 µM (cancer cells; CML)?
Its viability at 10 µM is 69%.

And the viability at 20 µM (cancer cells; CML)?
Its viability at 20 µM is 51%.

What about the viability at 10 µM (cancer cells; Children hepatoblastoma) of the same compound?
The viability at 10 µM was 75%.

What about the viability at 20 µM (cancer cells; Children hepatoblastoma) of the same compound?
Its viability at 20 µM is 68%.

And the viability at 10 µM (cancer cells; Colon adenocarcinoma)?
The viability at 10 µM was 66%.

And the viability at 20 µM (cancer cells; Colon adenocarcinoma)?
The viability at 20 µM was 56%.

And the viability at 10 µM (cancer cells; Colorectal cancer)?
The viability at 10 µM was 79%.

And the viability at 20 µM (cancer cells; Colorectal cancer)?
Its viability at 20 µM is 67%.

And the viability at 10 µM (cancer cells; Gastric cancer)?
Its viability at 10 µM is 66%.

And the viability at 20 µM (cancer cells; Gastric cancer)?
The viability at 20 µM was 48%.

What about the viability at 10 µM (cancer cells; Gastrointestinal tumor) of the same compound?
The viability at 10 µM was 73%.

And the viability at 20 µM (cancer cells; Gastrointestinal tumor)?
Its viability at 20 µM is 62%.

And the viability at 10 µM (cancer cells; Glioma)?
The viability at 10 µM was 78%.

And the viability at 20 µM (cancer cells; Glioma)?
Its viability at 20 µM is 74%.

What about the viability at 10 µM (cancer cells; [3]) of the same compound?
The viability at 10 µM was 73%.

And the viability at 20 µM (cancer cells; [3])?
Its viability at 20 µM is 68%.

And the viability at 10 µM (cancer cells; Laryngeal cancer)?
The viability at 10 µM was 76%.

What about the viability at 20 µM (cancer cells; Laryngeal cancer) of the same compound?
The viability at 20 µM was 66%.

And the viability at 10 µM (cancer cells; Liver cancer)?
The viability at 10 µM was 82%.

What about the viability at 20 µM (cancer cells; Liver cancer) of the same compound?
Its viability at 20 µM is 73%.

And the viability at 10 µM (cancer cells; Lung adenocarcinoma)?
The viability at 10 µM was 77%.

What about the viability at 20 µM (cancer cells; Lung adenocarcinoma) of the same compound?
Its viability at 20 µM is 64%.

And the viability at 10 µM (cancer cells; Lung cancer)?
The viability at 10 µM was 72%.

What about the viability at 20 µM (cancer cells; Lung cancer) of the same compound?
The viability at 20 µM was 67%.

What about the viability at 10 µM (cancer cells; Malignant melanoma) of the same compound?
Its viability at 10 µM is 88%.

And the viability at 20 µM (cancer cells; Malignant melanoma)?
Its viability at 20 µM is 86%.

And the viability at 10 µM (cancer cells; Nasopharynx cancer)?
Its viability at 10 µM is 64%.

And the viability at 20 µM (cancer cells; Nasopharynx cancer)?
The viability at 20 µM was 59%.

And the viability at 10 µM (cancer cells; Ovarian cancer)?
The viability at 10 µM was 68%.

What about the viability at 20 µM (cancer cells; Ovarian cancer) of the same compound?
The viability at 20 µM was 61%.

What about the viability at 10 µM (cancer cells; Pancreatic cancer) of the same compound?
The viability at 10 µM was 68%.

And the viability at 20 µM (cancer cells; Pancreatic cancer)?
The viability at 20 µM was 62%.

What about the viability at 10 µM (cancer cells; Prostate cancer) of the same compound?
The viability at 10 µM was 75%.

And the viability at 20 µM (cancer cells; Prostate cancer)?
The viability at 20 µM was 62%.

What about the viability at 10 µM (cancer cells; Retinoblastoma) of the same compound?
The viability at 10 µM was 82%.

And the viability at 20 µM (cancer cells; Retinoblastoma)?
The viability at 20 µM was 69%.

What about the viability at 10 µM (cancer cells; Skin cancer) of the same compound?
Its viability at 10 µM is 62%.

What about the viability at 20 µM (cancer cells; Skin cancer) of the same compound?
The viability at 20 µM was 47%.

What about the viability at 10 µM (normal cells; [4]) of the same compound?
Its viability at 10 µM is 92%.

What about the viability at 10 µM (normal cells; [5]) of the same compound?
Its viability at 10 µM is 91%.

And the viability at 20 µM (normal cells; [4])?
The viability at 20 µM was 91%.

What about the viability at 20 µM (normal cells; [5]) of the same compound?
Its viability at 20 µM is 89%.

What about the viability at 10 µM (cancer stem cells; AML) of the same compound?
Its viability at 10 µM is 47%.

What about the viability at 20 µM (cancer stem cells; AML) of the same compound?
Its viability at 20 µM is 38%.

And the viability at 10 µM (cancer stem cells; Brain glioma)?
The viability at 10 µM was 52%.

And the viability at 20 µM (cancer stem cells; Brain glioma)?
The viability at 20 µM was 43%.

And the viability at 10 µM (cancer stem cells; Brain tumor)?
The viability at 10 µM was 66%.

And the viability at 20 µM (cancer stem cells; Brain tumor)?
Its viability at 20 µM is 53%.

What about the viability at 10 µM (cancer stem cells; Breast cancer) of the same compound?
Its viability at 10 µM is 54%.

And the viability at 20 µM (cancer stem cells; Breast cancer)?
The viability at 20 µM was 47%.

And the viability at 10 µM (cancer stem cells; CLL)?
The viability at 10 µM was 46%.

What about the viability at 20 µM (cancer stem cells; CLL) of the same compound?
Its viability at 20 µM is 38%.

What about the viability at 10 µM (cancer stem cells; CML) of the same compound?
The viability at 10 µM was 51%.

And the viability at 20 µM (cancer stem cells; CML)?
The viability at 20 µM was 46%.

And the viability at 10 µM (cancer stem cells; Children hepatoblastoma)?
The viability at 10 µM was 68%.

And the viability at 20 µM (cancer stem cells; Children hepatoblastoma)?
Its viability at 20 µM is 56%.

And the viability at 10 µM (cancer stem cells; Colon adenocarcinoma)?
Its viability at 10 µM is 58%.

What about the viability at 20 µM (cancer stem cells; Colon adenocarcinoma) of the same compound?
Its viability at 20 µM is 49%.

What about the viability at 10 µM (cancer stem cells; Colorectal cancer) of the same compound?
The viability at 10 µM was 66%.

And the viability at 20 µM (cancer stem cells; Colorectal cancer)?
Its viability at 20 µM is 55%.

And the viability at 10 µM (cancer stem cells; Gastric cancer)?
The viability at 10 µM was 51%.

What about the viability at 20 µM (cancer stem cells; Gastric cancer) of the same compound?
Its viability at 20 µM is 39%.

What about the viability at 10 µM (cancer stem cells; Gastrointestinal tumor) of the same compound?
The viability at 10 µM was 57%.

And the viability at 20 µM (cancer stem cells; Gastrointestinal tumor)?
Its viability at 20 µM is 52%.

And the viability at 10 µM (cancer stem cells; Glioma)?
The viability at 10 µM was 69%.

And the viability at 20 µM (cancer stem cells; Glioma)?
Its viability at 20 µM is 60%.

What about the viability at 10 µM (cancer stem cells; [3]) of the same compound?
The viability at 10 µM was 64%.

What about the viability at 20 µM (cancer stem cells; [3]) of the same compound?
Its viability at 20 µM is 58%.

What about the viability at 10 µM (cancer stem cells; Laryngeal cancer) of the same compound?
The viability at 10 µM was 63%.

And the viability at 20 µM (cancer stem cells; Laryngeal cancer)?
Its viability at 20 µM is 55%.

And the viability at 10 µM (cancer stem cells; Liver cancer)?
The viability at 10 µM was 74%.

And the viability at 20 µM (cancer stem cells; Liver cancer)?
The viability at 20 µM was 61%.

What about the viability at 10 µM (cancer stem cells; Lung adenocarcinoma) of the same compound?
The viability at 10 µM was 67%.

And the viability at 20 µM (cancer stem cells; Lung adenocarcinoma)?
Its viability at 20 µM is 55%.

And the viability at 10 µM (cancer stem cells; Lung cancer)?
Its viability at 10 µM is 61%.

And the viability at 20 µM (cancer stem cells; Lung cancer)?
Its viability at 20 µM is 54%.

And the viability at 10 µM (cancer stem cells; Malignant melanoma)?
Its viability at 10 µM is 82%.

What about the viability at 20 µM (cancer stem cells; Malignant melanoma) of the same compound?
Its viability at 20 µM is 76%.

And the viability at 10 µM (cancer stem cells; Nasopharynx cancer)?
Its viability at 10 µM is 57%.

What about the viability at 20 µM (cancer stem cells; Nasopharynx cancer) of the same compound?
Its viability at 20 µM is 48%.

What about the viability at 10 µM (cancer stem cells; Ovarian cancer) of the same compound?
The viability at 10 µM was 56%.

What about the viability at 20 µM (cancer stem cells; Ovarian cancer) of the same compound?
The viability at 20 µM was 45%.

And the viability at 10 µM (cancer stem cells; Pancreatic cancer)?
Its viability at 10 µM is 55%.

What about the viability at 20 µM (cancer stem cells; Pancreatic cancer) of the same compound?
Its viability at 20 µM is 49%.

What about the viability at 10 µM (cancer stem cells; Prostate cancer) of the same compound?
The viability at 10 µM was 62%.

What about the viability at 20 µM (cancer stem cells; Prostate cancer) of the same compound?
Its viability at 20 µM is 51%.

What about the viability at 10 µM (cancer stem cells; Retinoblastoma) of the same compound?
The viability at 10 µM was 62%.

And the viability at 20 µM (cancer stem cells; Retinoblastoma)?
Its viability at 20 µM is 54%.

And the viability at 10 µM (cancer stem cells; Skin cancer)?
Its viability at 10 µM is 46%.

What about the viability at 20 µM (cancer stem cells; Skin cancer) of the same compound?
The viability at 20 µM was 39%.

What about the “Content of TNF-α in culture supernatant of synoviocyte (x ± s)” value [1] of the same compound?
Its value is 0.62 ± 0.054 ng/mL.

What about the “Content of IL-1β in culture supernatant of synoviocyte (x ± s)” value [2] of the same compound?
Its value is 0.38 ± 0.046 ng/mL.

Source: patent US10463644B2, “Uses of sesquiterpene lactone compounds and their derivatives in drugs preparation” (ACCENDATECH, priority 2013, dated 2019)
